Data as given in ChEMBL document CHEMBL4138146, “A Schmidt rearrangement-mediated synthesis of novel tetrahydro-benzo[1,4]diazepin-5-ones as potential anticancer and antiprotozoal agents” (Eur J Med Chem, 2017).

Assays:
Assay type in all cases: functional
RPMI-8226 [1] = assay: Growth inhibition of human RPMI8226 cells assessed as cell growth at 10^-8 M incubated for 48 hrs by sulforhodamine B assay relative to control; conditions: RPMI-8226, 48 h, read-out: Activity
NCI-H522 [2] = assay: Growth inhibition of human NCI-H522 cells assessed as cell growth at 10^-8 M incubated for 48 hrs by sulforhodamine B assay relative to control; conditions: NCI-H522, 48 h, read-out: Activity
HCC 2998 [3] = assay: Growth inhibition of human HCC2998 cells assessed as cell growth at 10^-8 M incubated for 48 hrs by sulforhodamine B assay relative to control; conditions: HCC 2998, 48 h, read-out: Activity
SF-268 = assay: Growth inhibition of human SF268 cells assessed as cell growth at 10^-8 M incubated for 48 hrs by sulforhodamine B assay relative to control; conditions: SF-268, 48 h, read-out: Activity
SF-295 = assay: Growth inhibition of human SF295 cells assessed as cell growth at 10^-8 M incubated for 48 hrs by sulforhodamine B assay relative to control; conditions: SF-295, 48 h, read-out: Activity
SK-MEL-2 = assay: Growth inhibition of human SK-MEL-2 cells assessed as cell growth at 10^-8 M incubated for 48 hrs by sulforhodamine B assay relative to control; conditions: SK-MEL-2, 48 h, read-out: Activity
SK-OV-3 [4] = assay: Growth inhibition of human SKOV3 cells assessed as cell growth at 10^-8 M incubated for 48 hrs by sulforhodamine B assay relative to control; conditions: SK-OV-3, 48 h, read-out: Activity
ACHN = assay: Growth inhibition of human ACHN cells assessed as cell growth at 10^-8 M incubated for 48 hrs by sulforhodamine B assay relative to control; conditions: read-out: Activity
PC-3 [5] = assay: Growth inhibition of human PC3 cells assessed as cell growth at 10^-8 M incubated for 48 hrs by sulforhodamine B assay relative to control; conditions: PC-3, 48 h, read-out: Activity
MDA-MB-468 = assay: Growth inhibition of human MDA-MB-468 cells assessed as cell growth at 10^-8 M incubated for 48 hrs by sulforhodamine B assay relative to control; conditions: MDA-MB-468, 48 h, read-out: Activity
NCI-H522 [6] = assay: Growth inhibition of human NCI-H522 cells assessed as cell growth at 10^-7 M incubated for 48 hrs by sulforhodamine B assay relative to control; conditions: NCI-H522, 48 h, read-out: Activity
COLO 205 = assay: Growth inhibition of human COLO205 cells assessed as cell growth at 10^-7 M incubated for 48 hrs by sulforhodamine B assay relative to control; conditions: COLO 205, 48 h, read-out: Activity
HCC 2998 [7] = assay: Growth inhibition of human HCC2998 cells assessed as cell growth at 10^-7 M incubated for 48 hrs by sulforhodamine B assay relative to control; conditions: HCC 2998, 48 h, read-out: Activity
MDA-MB-435 = assay: Growth inhibition of human MDA-MB-435 cells assessed as cell growth at 10^-7 M incubated for 48 hrs by sulforhodamine B assay relative to control; conditions: MDA-MB-435, 48 h, read-out: Activity
SK-OV-3 [8] = assay: Growth inhibition of human SKOV3 cells assessed as cell growth at 10^-7 M incubated for 48 hrs by sulforhodamine B assay relative to control; conditions: SK-OV-3, 48 h, read-out: Activity
RXF 393 = assay: Growth inhibition of human RXF393 cells assessed as cell growth at 10^-7 M incubated for 48 hrs by sulforhodamine B assay relative to control; conditions: RXF 393, 48 h, read-out: Activity
T47D [9] = assay: Growth inhibition of human T47D cells assessed as cell growth at 10^-7 M incubated for 48 hrs by sulforhodamine B assay relative to control; conditions: read-out: Activity
RPMI-8226 [10] = assay: Growth inhibition of human RPMI8226 cells assessed as cell growth at 10^-6 M incubated for 48 hrs by sulforhodamine B assay relative to control; conditions: RPMI-8226, 48 h, read-out: Activity
NCI-H23 [11] = assay: Growth inhibition of human NCI-H23 cells assessed as cell growth at 10^-6 M incubated for 48 hrs by sulforhodamine B assay relative to control; conditions: NCI-H23, 48 h, read-out: Activity
KM12 = assay: Growth inhibition of human KM12 cells assessed as cell growth at 10^-6 M incubated for 48 hrs by sulforhodamine B assay relative to control; conditions: KM12, 48 h, read-out: Activity
NCI/ADR-RES = assay: Growth inhibition of human NCI/ADR-RES cells assessed as cell growth at 10^-6 M incubated for 48 hrs by sulforhodamine B assay relative to control; conditions: read-out: Activity
A498 = assay: Growth inhibition of human A498 cells assessed as cell growth at 10^-6 M incubated for 48 hrs by sulforhodamine B assay relative to control; conditions: A498, 48 h, read-out: Activity
HL-60(TB) = assay: Growth inhibition of human HL-60(TB) cells assessed as cell growth at 10^-5 M incubated for 48 hrs by sulforhodamine B assay relative to control; conditions: HL-60, 48 h, read-out: Activity
NCI-H23 [12] = assay: Growth inhibition of human NCI-H23 cells assessed as cell growth at 10^-5 M incubated for 48 hrs by sulforhodamine B assay relative to control; conditions: NCI-H23, 48 h, read-out: Activity
SF-539 = assay: Growth inhibition of human SF539 cells assessed as cell growth at 10^-5 M incubated for 48 hrs by sulforhodamine B assay relative to control; conditions: SF-539, 48 h, read-out: Activity
LOX IMVI = assay: Growth inhibition of human LOXIMVI cells assessed as cell growth at 10^-5 M incubated for 48 hrs by sulforhodamine B assay relative to control; conditions: read-out: Activity
PC-3 [13] = assay: Growth inhibition of human PC3 cells assessed as cell growth at 10^-5 M incubated for 48 hrs by sulforhodamine B assay relative to control; conditions: PC-3, 48 h, read-out: Activity
MCF7 = assay: Growth inhibition of human MCF7 cells assessed as cell growth at 10^-5 M incubated for 48 hrs by sulforhodamine B assay relative to control; conditions: MCF7, 48 h, read-out: Activity
EKVX = assay: Growth inhibition of human EKVX cells assessed as cell growth at 10^-4 M incubated for 48 hrs by sulforhodamine B assay relative to control; conditions: read-out: Activity
SNB-19 = assay: Growth inhibition of human SNB19 cells assessed as cell growth at 10^-4 M incubated for 48 hrs by sulforhodamine B assay relative to control; conditions: SNB-19, 48 h, read-out: Activity
SNB-75 = assay: Growth inhibition of human SNB75 cells assessed as cell growth at 10^-4 M incubated for 48 hrs by sulforhodamine B assay relative to control; conditions: SNB-75, 48 h, read-out: Activity
IGROV-1 = assay: Growth inhibition of human IGROV1 cells assessed as cell growth at 10^-4 M incubated for 48 hrs by sulforhodamine B assay relative to control; conditions: IGROV-1, 48 h, read-out: Activity
OVCAR-8 = assay: Growth inhibition of human OVCAR8 cells assessed as cell growth at 10^-4 M incubated for 48 hrs by sulforhodamine B assay relative to control; conditions: OVCAR-8, 48 h, read-out: Activity
T47D [14] = assay: Growth inhibition of human T47D cells assessed as cell growth at 10^-4 M incubated for 48 hrs by sulforhodamine B assay relative to control; conditions: read-out: Activity

With `CCCCOc1nc2ccccc2cc1C1CNC(=O)c2ccccc2N1` (centres undefined) the growth at 0.01 µM (RPMI-8226 [1]) was 95%, the growth at 0.01 µM (NCI-H522 [2]) was 90% and the growth at 0.01 µM (HCC 2998 [3]) was 99%. For the same compound, the growth at 0.01 µM (SF-268) was 95%, the growth at 0.01 µM (SF-295) was 84% and the growth at 0.01 µM (SK-MEL-2) was 96%. It also gave a growth at 0.01 µM (SK-OV-3 [4]) of 88%, a growth at 0.01 µM (ACHN) of 103% and a growth at 0.01 µM (PC-3 [5]) of 96%. The growth at 0.01 µM (MDA-MB-468) was 78%, the growth at 0.1 µM (NCI-H522 [6]) was 107% and the growth at 0.1 µM (COLO 205) was 95%. The growth at 0.1 µM (HCC 2998 [7]) was 93%, the growth at 0.1 µM (MDA-MB-435) was 98% and the growth at 0.1 µM (SK-OV-3 [8]) was 98%. It also gave a growth at 0.1 µM (RXF 393) of 86%, a growth at 0.1 µM (T47D [9]) of 99% and a growth at 1 µM (RPMI-8226 [10]) of 84%. The growth at 1 µM (NCI-H23 [11]) was 91%, the growth at 1 µM (KM12) was 85% and the growth at 1 µM (NCI/ADR-RES) was 70%. For the same compound, the growth at 1 µM (A498) was 42%, the growth at 10 µM (HL-60(TB)) was -28% and the growth at 10 µM (NCI-H23 [12]) was 33%. The growth at 10 µM (SF-539) was -12%, the growth at 10 µM (LOX IMVI) was 15% and the growth at 10 µM (PC-3 [13]) was 9%. For the same compound, the growth at 10 µM (MCF7) was 11%, the growth at 100 µM (EKVX) was -3% and the growth at 100 µM (SNB-19) was -5%. For the same compound, the growth at 100 µM (SNB-75) was -79%, the growth at 100 µM (IGROV-1) was -51% and the growth at 100 µM (OVCAR-8) was -45%. It also gave a growth at 100 µM (T47D [14]) of 10%.
